Laboratory results taken from patent US9012493B2, “1-heterodiene derivative and pest control agent” (Nippon Soda Co., Ltd., priority 2009, dated 2015).

How the values were obtained:
Format in all cases: in vivo
[1] = system: Rice Armyworm (Mythimna Separata); experiment: Efficacy test against rice armyworm, corn leaf dip; details: 125 ppm, emulsifiable concentrate diluted with water, corn leaves immersed, second instar larvae, after 5 days, 25° C.
In short: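 Corn leaves dipped 30 s in compound diluted to 125 ppm from an emulsifiable concentrate, air-dried, then offered to five second-instar larvae. Held at 25° C and 65% humidity; mortality scored after 5 days as dead/released ×100. Run in duplicate.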

[2] = system: Cotton Aphid (Aphis Gossypii); experiment: Efficacy test against cotton aphid, spray on cucumber plant; details: 125 ppm, emulsifiable concentrate diluted with water, sprayed over cucumber plant with nymphs, after 5 days, 25° C.
In short: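 Cucumber plants (~10 days after sprouting) carrying nymphs deposited by cotton aphid adults over 1 day were sprayed with emulsifiable concentrate diluted to 125 ppm compound. Plants were kept at 25 °C and 65% humidity. Mortality after 5 days gave the insecticidal rate (dead/released ×100), from two replicates.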

[3] = system: Sweetpotato Whitefly (Bemisia Tabaci); experiment: Efficacy test against sweetpotato whitefly, sprayed tomato leaf; details: 125 ppm, emulsifiable concentrate diluted with water, adults (type B), after 2 days, 25° C.
In short: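 Cut tomato leaves were sprayed with an emulsifiable concentrate diluted to 125 ppm compound, air-dried, then infested with seven pairs of type B adults. Leaves were held at 25 °C and 65% humidity, and mortality was counted after 2 days as dead/released × 100. The test was run twice.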

[4] = system: Twospotted Spider Mite (Tetranychus Urticae Koch); experiment: Efficacy test against twospotted spider mite, spray on kidney bean plant; details: 125 ppm, wettable powder diluted with water, sprayed, female adults with resistance to an organophosphorus agent on kidney bean, after 3 days
Protocol: The wettable powder obtained according to Formulation of Formulation Example 1 was diluted with water so as to control the concentration of the compound to 125 ppm. Seventeen female adults of twospotted spider mite with resistance to an organophosphorus agent were inoculated on a first true leaf of a kidney bean plant (approximately 7 to 10 days after sprouting) sown in a 3 sun/size pot (9 cm). The diluted solution was sprayed. The pot was placed in a temperature-controlled room at a temperature of 25° C. and a humidity of 65%. After 3 days, the adulticidal rate was examined. The test was repeated twice.

C=C1SC(=Nc2ccc(OC)cc2C)C(=CSc2ccc(F)cc2)CC1(C)C [Compound 2-41]
100%: insecticidal rate [1] | insecticidal rate [2] | insecticidal rate [3] | adulticidal rate [4]

C=C1SC(=Nc2ccc(OC)cc2)C(=CSc2ccc(F)cc2)CC1(C)C [Compound 2-46]
100%: insecticidal rate [1] | insecticidal rate [2] | insecticidal rate [3] | adulticidal rate [4]

C=C1SC(=Nc2ccc(C)cc2)C(=CSc2ccc(F)cc2)CC1(C)C [Compound 2-48]
100%: insecticidal rate [1] | insecticidal rate [2] | insecticidal rate [3] | adulticidal rate [4]

C=C1SC(=Nc2ccc(OC)cc2)C(=CSc2ccccc2OC)CC1(C)C [Compound 2-49]
100%: insecticidal rate [1] | insecticidal rate [2] | insecticidal rate [3] | adulticidal rate [4]

C=C1SC(=Nc2ccc(C)cc2)C(=CSc2ccccc2)CC12CCOCC2 [Compound 2-56]
100%: insecticidal rate [1] | insecticidal rate [2] | insecticidal rate [3] | adulticidal rate [4]

C=C1SC(=Nc2ccc(C)cc2C)C(=CSc2ccccc2)CC1(C)C [Compound 2-64]
100%: insecticidal rate [1] | insecticidal rate [2] | insecticidal rate [3] | adulticidal rate [4]

C=C1SC(=Nc2ccc(C)cc2)C(=CSc2ccccc2)CC1CC (centres unmarked) [Compound 2-68]
100%: insecticidal rate [1] | insecticidal rate [2] | insecticidal rate [3] | adulticidal rate [4]

C=C1SC(=Nc2ccc(OC)cc2)C(=CSc2ccc(C#N)cc2)CC1(C)C [Compound 2-70]
100%: insecticidal rate [1] | insecticidal rate [2] | insecticidal rate [3] | adulticidal rate [4]

C=C1SC(=Nc2ccc(C)cc2)C(=CSc2cccs2)CC1(C)C [Compound 2-71]
100%: insecticidal rate [1] | insecticidal rate [2] | insecticidal rate [3] | adulticidal rate [4]

C=C1SC(=Nc2ccc(C)cc2)C(=CSc2ccc(C#N)cc2)CC1(C)C [Compound 2-72]
100%: insecticidal rate [1] | insecticidal rate [2] | insecticidal rate [3] | adulticidal rate [4]

C=C1SC(=Nc2ccc(C)cc2)C(=CSc2ccccc2)CC1CCC (centres unmarked) [Compound 2-75]
100%: insecticidal rate [1] | insecticidal rate [2] | insecticidal rate [3] | adulticidal rate [4]

C=C1SC(=Nc2ccc(C)cc2)C(=CSc2ccccc2)CC1C (centres unmarked) [Compound 2-76]
100%: insecticidal rate [1] | insecticidal rate [2] | insecticidal rate [3] | adulticidal rate [4]

C=C1SC(=Nc2ccc(C)cc2)C(=CSc2cccs2)CC1C (centres unmarked) [Compound 2-77]
100%: insecticidal rate [1] | insecticidal rate [2] | insecticidal rate [3] | adulticidal rate [4]

C=C1SC(=Nc2ccc(C)cc2)C(=CSc2ccsc2)CC1(C)C [Compound 2-78]
100%: insecticidal rate [1] | insecticidal rate [2] | insecticidal rate [3] | adulticidal rate [4]

C=C1SC(=Nc2ccc(C)cc2)C(=CSc2ccc(C)s2)CC1(C)C [Compound 2-79]
100%: insecticidal rate [1] | insecticidal rate [2] | insecticidal rate [3] | adulticidal rate [4]

C=C1SC(=Nc2ccc(C)cc2)C(=CSc2ccc(OC)s2)CC1(C)C [Compound 2-80]
100%: insecticidal rate [1] | insecticidal rate [2] | insecticidal rate [3] | adulticidal rate [4]

C=C1SC(=Nc2ccc(OC)cc2)C(=CSc2ccsc2)CC1(C)C [Compound 2-81]
100%: insecticidal rate [1] | insecticidal rate [2] | insecticidal rate [3] | adulticidal rate [4]

C=C1SC(=Nc2ccc(OC)cc2)C(=CSc2ccc(C)s2)CC1(C)C [Compound 2-83]
100%: insecticidal rate [1] | insecticidal rate [2] | insecticidal rate [3] | adulticidal rate [4]

C=C1SC(=Nc2ccc(C)cc2)C(=CSc2ccc(C(F)(F)F)cc2)CC1(C)C [Compound 2-90]
100%: insecticidal rate [1] | insecticidal rate [2] | insecticidal rate [3] | adulticidal rate [4]

C=C1SC(=Nc2ccc(C)cc2)C(=CSc2nc3ccccc3s2)CC1(C)C [Compound 2-94]
100%: insecticidal rate [1] | insecticidal rate [2] | insecticidal rate [3] | adulticidal rate [4]

C=C1SC(=Nc2ccc(C)cc2)C(=CSc2cccc(C(F)(F)F)c2)CC1(C)C [Compound 2-99]
100%: insecticidal rate [1] | insecticidal rate [2] | insecticidal rate [3] | adulticidal rate [4]

C=C1SC(=Nc2ccc(C)cc2)C(=CSc2ccccc2C(F)(F)F)CC1(C)C [Compound 2-100]
100%: insecticidal rate [1] | insecticidal rate [2] | insecticidal rate [3] | adulticidal rate [4]

C=C1SC(=Nc2ccc(OC)cc2)C(=CSc2ccc([Si](C)(C)C)s2)CC1(C)C [Compound 2-103]
100%: insecticidal rate [1] | insecticidal rate [2] | insecticidal rate [3] | adulticidal rate [4]

C=C1SC(=Nc2ccc(C)cc2)C(=CSc2cccc(C)c2)CC1(C)C [Compound 2-110]
100%: insecticidal rate [1] | insecticidal rate [2] | insecticidal rate [3] | adulticidal rate [4]

C=C1SC(=Nc2ccc(OC)cc2)C(=CSc2ccc(Br)s2)CC1(C)C [Compound 2-117]
100%: insecticidal rate [1] | insecticidal rate [2] | insecticidal rate [3] | adulticidal rate [4]

C=C1SC(=Nc2ccc(C)cc2)C(=CSc2ccc(F)cc2F)CC1(C)C [Compound 2-124]
100%: insecticidal rate [1] | insecticidal rate [2] | insecticidal rate [3] | adulticidal rate [4]

C=C1SC(=Nc2ccc(C)c(C)c2)C(=CSc2ccccc2)CC1(C)C [Compound 2-148]
100%: insecticidal rate [1] | insecticidal rate [2] | insecticidal rate [3] | adulticidal rate [4]

C=C1SC(=Nc2ccc(C)c(C)c2)C(=CSc2cccs2)CC1(C)C [Compound 2-149]
100%: insecticidal rate [1] | insecticidal rate [2] | insecticidal rate [3] | adulticidal rate [4]

C=C1SC(=Nc2ccc(C)c(C)c2)C(=CSc2ccc(F)cc2)CC1(C)C [Compound 2-150]
100%: insecticidal rate [1] | insecticidal rate [2] | insecticidal rate [3] | adulticidal rate [4]
